# pIC50: −log10 of the molar value.
# Tests used:
# Assay type in all cases: biochemical
# ABL = target: T1, ABL (Homo sapiens, UniProt P00519); assay: Selectivity profiling, QuickScout TK Screening Panel
# T1 construct: purchased Carna Biosciences
# Description: (§1) The inhibitory effects of Compound 1 against 20 tyrosine kinases and 30 serine/threonine kinases were investigated using QuickScout™ TK and STK Screening Panel (Carna Biosciences, Kobe Japan). […] The results reveal that Compound 1 inhibits TNIK_N more potently (IC50; 9 nM) than the other 50 kinases.
# ITK = target: T2, ITK (Homo sapiens, UniProt Q08881); assay: as above
# T2 construct: purchased Carna Biosciences
# T2 sequence (Q08881 whole entry): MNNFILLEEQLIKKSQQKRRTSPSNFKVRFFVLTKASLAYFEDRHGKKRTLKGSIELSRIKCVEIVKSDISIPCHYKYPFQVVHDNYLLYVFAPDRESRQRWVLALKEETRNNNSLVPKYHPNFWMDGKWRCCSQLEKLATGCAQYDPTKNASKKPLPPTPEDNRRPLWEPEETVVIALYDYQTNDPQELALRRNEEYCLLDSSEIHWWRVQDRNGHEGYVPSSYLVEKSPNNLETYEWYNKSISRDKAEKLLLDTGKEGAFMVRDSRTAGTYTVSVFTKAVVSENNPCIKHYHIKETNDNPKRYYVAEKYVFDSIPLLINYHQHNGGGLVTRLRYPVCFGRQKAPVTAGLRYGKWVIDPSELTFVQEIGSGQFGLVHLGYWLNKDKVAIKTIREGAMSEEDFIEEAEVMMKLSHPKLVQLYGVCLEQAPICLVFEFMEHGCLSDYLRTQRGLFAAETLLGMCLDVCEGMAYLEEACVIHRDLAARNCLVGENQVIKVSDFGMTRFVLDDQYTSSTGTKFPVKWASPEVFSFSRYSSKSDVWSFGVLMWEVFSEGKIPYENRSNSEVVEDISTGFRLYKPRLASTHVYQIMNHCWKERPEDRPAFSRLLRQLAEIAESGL
# Description: as §1
# KDR = target: T3, KDR (Homo sapiens, UniProt P35968); assay: as above
# T3 construct: purchased Carna Biosciences
# Description: as §1
# LCK = target: T4, LCK (Homo sapiens, UniProt P06239); assay: as above
# T4 construct: purchased Carna Biosciences
# T4 sequence (P06239 whole entry): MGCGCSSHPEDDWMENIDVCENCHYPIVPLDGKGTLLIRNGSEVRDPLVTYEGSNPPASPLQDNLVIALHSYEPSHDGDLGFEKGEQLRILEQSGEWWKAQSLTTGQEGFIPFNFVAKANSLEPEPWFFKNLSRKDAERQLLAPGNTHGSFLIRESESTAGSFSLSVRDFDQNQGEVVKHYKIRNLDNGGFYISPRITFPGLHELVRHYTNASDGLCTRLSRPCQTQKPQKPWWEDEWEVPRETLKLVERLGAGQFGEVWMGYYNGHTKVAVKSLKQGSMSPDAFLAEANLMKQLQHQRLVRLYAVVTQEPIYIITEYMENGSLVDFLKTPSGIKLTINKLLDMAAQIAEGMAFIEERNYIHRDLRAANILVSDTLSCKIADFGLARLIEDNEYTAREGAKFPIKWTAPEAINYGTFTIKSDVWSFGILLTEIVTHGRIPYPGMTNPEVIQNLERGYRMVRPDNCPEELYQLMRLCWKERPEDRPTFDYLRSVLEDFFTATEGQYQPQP
# Description: as §1
# JAK3 = target: T5, JAK3 (Homo sapiens, UniProt P52333); assay: as above
# T5 construct: purchased Carna Biosciences
# Description: as §1
# TYRO3 = target: T6, TYRO3 (Homo sapiens, UniProt Q06418); assay: as above
# T6 construct: purchased Carna Biosciences
# T6 sequence (Q06418 41-890): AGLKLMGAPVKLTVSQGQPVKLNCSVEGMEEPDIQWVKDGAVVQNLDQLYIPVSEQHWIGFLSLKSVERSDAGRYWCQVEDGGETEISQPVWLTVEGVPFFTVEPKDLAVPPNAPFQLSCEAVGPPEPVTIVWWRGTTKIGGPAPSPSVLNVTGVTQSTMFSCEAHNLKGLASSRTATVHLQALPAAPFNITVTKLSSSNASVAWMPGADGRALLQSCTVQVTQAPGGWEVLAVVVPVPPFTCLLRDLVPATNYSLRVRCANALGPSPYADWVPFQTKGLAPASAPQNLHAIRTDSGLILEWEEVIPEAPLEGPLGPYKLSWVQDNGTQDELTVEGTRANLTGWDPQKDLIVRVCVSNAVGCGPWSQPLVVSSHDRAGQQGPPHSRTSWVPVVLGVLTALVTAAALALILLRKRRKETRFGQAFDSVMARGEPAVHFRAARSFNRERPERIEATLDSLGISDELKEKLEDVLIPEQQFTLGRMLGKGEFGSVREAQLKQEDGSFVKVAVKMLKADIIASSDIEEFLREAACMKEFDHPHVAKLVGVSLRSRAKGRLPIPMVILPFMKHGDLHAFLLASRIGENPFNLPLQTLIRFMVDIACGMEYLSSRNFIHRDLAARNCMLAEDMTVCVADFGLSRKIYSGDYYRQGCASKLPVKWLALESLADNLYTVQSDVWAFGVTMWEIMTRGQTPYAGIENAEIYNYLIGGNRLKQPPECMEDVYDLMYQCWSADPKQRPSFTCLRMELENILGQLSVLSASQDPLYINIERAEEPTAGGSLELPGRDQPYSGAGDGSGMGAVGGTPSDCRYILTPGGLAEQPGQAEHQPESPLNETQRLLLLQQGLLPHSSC
# Description: as §1
# MST1 = target: T7, MST1 (Homo sapiens, UniProt Q13043); assay: Selectivity profiling, QuickScout STK Screening Panel
# T7 construct: purchased Carna Biosciences
# Description: as §1
# ROCK1 = target: T8, ROCK1 (Homo sapiens, UniProt Q13464); assay: as above
# T8 construct: purchased Carna Biosciences
# Description: as §1
# GSK3b = target: T9, GSK3b (Homo sapiens, UniProt P49841); assay: as above
# T9 construct: purchased Carna Biosciences
# Description: as §1
# MLK1 = target: T10, MLK1 (Homo sapiens, UniProt P80192); assay: as above
# T10 construct: purchased Carna Biosciences
# Description: as §1
# PDK1 = target: T11, PDK1 (Homo sapiens, UniProt O15530); assay: as above
# T11 construct: purchased Carna Biosciences
# Description: as §1
# CDK2 = target: T12, CDK2 (Homo sapiens, UniProt P24941); assay: as above
# T12 construct: purchased Carna Biosciences
# Description: as §1
# p70S6K = target: T13, p70S6K (Homo sapiens, UniProt P23443); assay: as above
# T13 construct: purchased Carna Biosciences
# Description: as §1
# MAP2K1 = target: T14, MAP2K1 (Homo sapiens, UniProt Q02750); assay: as above
# T14 construct: purchased Carna Biosciences
# Description: as §1
# SGK = target: T15, SGK (Homo sapiens, UniProt O00141); assay: as above
# T15 construct: purchased Carna Biosciences
# Description: as §1
# p38a = target: T16, p38a (Homo sapiens, UniProt Q16539); assay: as above
# T16 construct: purchased Carna Biosciences
# Description: as §1
# NEK2 = target: T17, NEK2 (Homo sapiens, UniProt P51955); assay: as above
# T17 construct: purchased Carna Biosciences
# Description: as §1
# AMPKa1/b1/g1 = target: T18, AMPKa1/b1/g1 (Homo sapiens, UniProt P54619+Q13131+Q9Y478); assay: as above
# T18 construct: purchased Carna Biosciences
# Description: as §1
# DAPK1 = target: T19, DAPK1 (Homo sapiens, UniProt P53355); assay: as above
# T19 construct: purchased Carna Biosciences
# Description: as §1
# DYRK1B = target: T20, DYRK1B (Homo sapiens, UniProt Q9Y463); assay: as above
# T20 construct: purchased Carna Biosciences
# T20 sequence (Q9Y463 whole entry): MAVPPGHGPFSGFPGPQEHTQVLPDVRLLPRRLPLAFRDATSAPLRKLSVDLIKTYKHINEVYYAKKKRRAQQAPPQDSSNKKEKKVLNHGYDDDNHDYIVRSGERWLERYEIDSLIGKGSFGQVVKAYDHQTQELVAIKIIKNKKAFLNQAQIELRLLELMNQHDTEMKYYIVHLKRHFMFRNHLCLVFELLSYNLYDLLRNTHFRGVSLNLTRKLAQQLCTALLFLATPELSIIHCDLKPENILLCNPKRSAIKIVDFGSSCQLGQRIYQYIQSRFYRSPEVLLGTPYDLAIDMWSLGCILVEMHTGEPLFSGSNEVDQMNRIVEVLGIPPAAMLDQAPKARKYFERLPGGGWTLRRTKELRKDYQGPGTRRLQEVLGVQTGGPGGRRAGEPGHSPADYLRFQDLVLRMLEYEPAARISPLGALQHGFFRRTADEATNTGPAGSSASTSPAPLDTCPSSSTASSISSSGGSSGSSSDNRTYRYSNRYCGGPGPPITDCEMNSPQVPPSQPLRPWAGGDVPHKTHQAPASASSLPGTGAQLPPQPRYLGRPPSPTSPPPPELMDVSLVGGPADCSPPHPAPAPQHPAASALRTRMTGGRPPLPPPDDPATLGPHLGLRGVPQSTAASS
# Description: as §1
# AurA = target: T21, AurA (Homo sapiens, UniProt O14965); assay: as above
# T21 construct: purchased Carna Biosciences
# Description: as §1
# PKD2 = target: T22, PKD2 (Homo sapiens, UniProt Q9BZL6); assay: as above
# T22 construct: purchased Carna Biosciences
# T22 sequence (Q9BZL6 whole entry): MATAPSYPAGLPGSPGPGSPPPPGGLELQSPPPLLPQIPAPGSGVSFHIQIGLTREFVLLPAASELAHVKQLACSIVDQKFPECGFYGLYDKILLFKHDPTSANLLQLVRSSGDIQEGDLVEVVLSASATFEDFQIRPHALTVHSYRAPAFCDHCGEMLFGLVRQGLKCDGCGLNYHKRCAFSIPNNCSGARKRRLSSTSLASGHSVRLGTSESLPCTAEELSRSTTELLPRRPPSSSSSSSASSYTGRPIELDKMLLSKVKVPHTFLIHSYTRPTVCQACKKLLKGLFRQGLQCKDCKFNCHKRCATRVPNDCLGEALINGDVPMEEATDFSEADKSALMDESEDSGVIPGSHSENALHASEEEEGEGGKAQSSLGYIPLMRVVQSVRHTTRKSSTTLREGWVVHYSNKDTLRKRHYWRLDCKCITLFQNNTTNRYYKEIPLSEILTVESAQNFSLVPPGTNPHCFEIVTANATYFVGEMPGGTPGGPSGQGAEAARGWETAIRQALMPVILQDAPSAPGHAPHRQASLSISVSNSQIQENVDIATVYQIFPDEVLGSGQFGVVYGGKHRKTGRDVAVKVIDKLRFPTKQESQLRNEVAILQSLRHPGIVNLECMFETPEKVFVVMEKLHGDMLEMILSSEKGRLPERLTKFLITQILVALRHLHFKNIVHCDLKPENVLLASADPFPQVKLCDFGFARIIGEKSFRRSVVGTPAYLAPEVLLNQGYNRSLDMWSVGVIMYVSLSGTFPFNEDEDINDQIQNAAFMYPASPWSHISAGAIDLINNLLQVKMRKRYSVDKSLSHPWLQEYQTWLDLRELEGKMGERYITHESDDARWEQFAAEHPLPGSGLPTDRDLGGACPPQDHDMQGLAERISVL
# Description: as §1
# PKCa = target: T23, PKCa (Homo sapiens, UniProt P17252); assay: as above
# T23 construct: purchased Carna Biosciences
# Description: as §1
# PAK4 = target: T24, PAK4 (Homo sapiens, UniProt O96013); assay: as above
# T24 construct: purchased Carna Biosciences
# Description: as §1
# CK1e = target: T25, CK1e (Homo sapiens, UniProt P49674); assay: as above
# T25 construct: purchased Carna Biosciences
# T25 sequence (P49674 whole entry): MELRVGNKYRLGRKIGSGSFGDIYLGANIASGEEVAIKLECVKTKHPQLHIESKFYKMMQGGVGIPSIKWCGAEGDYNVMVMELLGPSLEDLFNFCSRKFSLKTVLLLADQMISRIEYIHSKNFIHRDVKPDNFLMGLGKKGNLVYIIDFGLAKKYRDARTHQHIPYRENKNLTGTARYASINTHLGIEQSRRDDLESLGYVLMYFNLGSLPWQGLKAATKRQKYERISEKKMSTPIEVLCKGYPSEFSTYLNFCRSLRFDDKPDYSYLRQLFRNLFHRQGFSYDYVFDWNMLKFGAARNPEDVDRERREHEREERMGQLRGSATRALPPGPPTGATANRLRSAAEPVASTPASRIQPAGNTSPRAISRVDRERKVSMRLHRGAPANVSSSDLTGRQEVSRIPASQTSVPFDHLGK
# Description: as §1
# IKKb = target: T26, IKKb (Homo sapiens, UniProt O14920); assay: as above
# T26 construct: purchased Carna Biosciences
# Description: as §1
# RAF1 = RAF1 (Homo sapiens, UniProt P04049); assay: as above
# Description: as §1
# PIM1 = target: T27, PIM1 (Homo sapiens, UniProt P11309); assay: as above
# T27 construct: purchased Carna Biosciences
# T27 sequence (P11309 whole entry): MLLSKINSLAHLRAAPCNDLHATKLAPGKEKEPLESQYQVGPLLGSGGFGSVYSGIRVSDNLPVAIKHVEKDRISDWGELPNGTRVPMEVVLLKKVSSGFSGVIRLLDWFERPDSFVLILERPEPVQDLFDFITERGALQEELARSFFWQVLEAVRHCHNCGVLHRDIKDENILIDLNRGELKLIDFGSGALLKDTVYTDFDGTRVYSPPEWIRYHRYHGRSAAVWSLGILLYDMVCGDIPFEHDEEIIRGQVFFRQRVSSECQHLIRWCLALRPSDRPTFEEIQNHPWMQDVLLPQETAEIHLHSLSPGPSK
# Description: as §1
# CaMK4 = target: T28, CaMK4 (Homo sapiens, UniProt Q16566); assay: as above
# T28 construct: purchased Carna Biosciences
# Description: as §1
# PKACa = target: T29, PKACa (Homo sapiens, UniProt P17612); assay: as above
# T29 construct: purchased Carna Biosciences
# Description: as §1
# MAPKAPK2 = target: T30, MAPKAPK2 (Homo sapiens, UniProt P49137); assay: as above
# T30 construct: purchased Carna Biosciences
# Description: as §1
# AKT1 = target: T31, AKT1 (Homo sapiens, UniProt P31749); assay: as above
# T31 construct: purchased Carna Biosciences
# Description: as §1
# JNK2 = target: T32, JNK2 (Homo sapiens, UniProt P45984); assay: as above
# T32 construct: purchased Carna Biosciences
# Description: as §1
# IRAK4 = target: T33, IRAK4 (Homo sapiens, UniProt Q9NWZ3); assay: as above
# T33 construct: purchased Carna Biosciences
# Description: as §1
# Erk2 = target: T34, Erk2 (Homo sapiens, UniProt P28482); assay: as above
# T34 construct: purchased Carna Biosciences
# Description: as §1
# CHK1 = target: T35, CHK1 (Homo sapiens, UniProt O14757); assay: as above
# T35 construct: purchased Carna Biosciences
# T35 sequence (O14757 whole entry): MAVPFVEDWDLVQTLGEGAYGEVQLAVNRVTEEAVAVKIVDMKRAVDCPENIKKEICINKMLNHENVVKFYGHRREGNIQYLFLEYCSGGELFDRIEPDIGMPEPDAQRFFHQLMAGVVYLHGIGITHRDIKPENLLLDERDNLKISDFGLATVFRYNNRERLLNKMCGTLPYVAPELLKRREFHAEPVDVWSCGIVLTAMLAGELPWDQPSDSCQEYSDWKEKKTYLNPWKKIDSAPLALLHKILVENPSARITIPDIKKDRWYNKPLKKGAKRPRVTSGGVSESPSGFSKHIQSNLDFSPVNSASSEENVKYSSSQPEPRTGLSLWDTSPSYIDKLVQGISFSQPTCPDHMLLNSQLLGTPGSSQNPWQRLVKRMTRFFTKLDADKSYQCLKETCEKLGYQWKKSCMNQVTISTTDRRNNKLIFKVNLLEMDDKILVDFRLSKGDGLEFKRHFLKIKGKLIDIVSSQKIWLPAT
# Description: as §1
smiles,measurement,setting,value
"CC(=O)Nc1ccc(C(=O)Nc2sc(Nc3ccccc3)nc2C(N)=O)cc1 [Compound 1, 5-(4-acetamidobenzamido)-2-(phenylamino)thiazole-4-carboxamide]",pIC50,ABL,6.54
same,pIC50,ITK,< 6.52
same,pIC50,KDR,7.23
same,pIC50,LCK,< 6.52
same,pIC50,JAK3,< 6.52
same,pIC50,TYRO3,< 6.52
same,pIC50,MST1,< 6.52
same,pIC50,ROCK1,< 6.52
same,pIC50,GSK3b,6.92
same,pIC50,MLK1,7.74
same,pIC50,PDK1,< 6.52
same,pIC50,CDK2,< 6.52
same,pIC50,p70S6K,< 6.52
same,pIC50,MAP2K1,< 6.52
same,pIC50,SGK,< 6.52
same,pIC50,p38a,< 6.52
same,pIC50,NEK2,< 6.52
same,pIC50,AMPKa1/b1/g1,< 6.52
same,pIC50,DAPK1,< 6.52
same,pIC50,DYRK1B,< 6.52
same,pIC50,AurA,6.89
same,pIC50,PKD2,< 6.52
same,pIC50,PKCa,< 6.52
same,pIC50,PAK4,< 6.52
same,pIC50,CK1e,< 6.52
same,pIC50,IKKb,< 6.52
same,pIC50,RAF1,< 6.52
same,pIC50,PIM1,< 6.52
same,pIC50,CaMK4,< 6.52
same,pIC50,PKACa,< 6.52
same,pIC50,MAPKAPK2,< 6.52
same,pIC50,AKT1,< 6.52
same,pIC50,JNK2,< 6.52
same,pIC50,IRAK4,< 6.52
same,pIC50,Erk2,< 6.52
same,pIC50,CHK1,< 6.52

# From patent publication US20100216795A1, “TNIK INHIBITOR AND THE USE” (priority 2008, published 2010)
